From EP4803142A2 (Kayothera Inc., priority 2021, dated 2022)

Molecular target: T1, hALDH1a2 (Homo sapiens, UniProt O94788)
T1 construct: pET-Aldh1a2 transformed BL21-DE3 cultures; cell extracts
T1 sequence (O94788 1-518): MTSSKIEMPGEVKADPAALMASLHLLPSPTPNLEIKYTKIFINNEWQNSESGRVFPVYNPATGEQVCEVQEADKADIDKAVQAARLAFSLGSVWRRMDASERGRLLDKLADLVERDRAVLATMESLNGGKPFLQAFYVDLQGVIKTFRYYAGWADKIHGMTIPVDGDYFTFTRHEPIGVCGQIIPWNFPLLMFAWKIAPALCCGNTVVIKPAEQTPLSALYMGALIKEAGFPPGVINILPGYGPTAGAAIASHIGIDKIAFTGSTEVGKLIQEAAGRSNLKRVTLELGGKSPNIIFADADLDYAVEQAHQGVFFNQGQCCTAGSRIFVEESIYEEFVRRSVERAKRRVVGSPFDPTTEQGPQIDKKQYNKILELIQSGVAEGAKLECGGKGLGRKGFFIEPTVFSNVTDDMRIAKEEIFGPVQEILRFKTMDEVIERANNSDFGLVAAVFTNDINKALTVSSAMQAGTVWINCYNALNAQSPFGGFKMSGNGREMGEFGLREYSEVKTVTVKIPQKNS
Test: biochemical
Settings: read-out: hAldhla2 IC50
Description: (§1) Biological Example 5C. Aldh1a2 Enzyme Inhibition Assay
(§2) Cell extracts were spun at 16000 x g for 5 minutes.
(§3) Recombinant enzyme and inhibitor added immediately before assay. Reaction rate measured by resorufin fluorescence. […]
(§4) Table 3B. IC50 values (nM) for inhibition of hALDH1a2 and mALDH1a2 of selected compounds

| IC50 [µM] | SMILES |
| --- | --- |
| 0.099 | O=C1CCc2cc(Nc3ccc4ccccc4n3)c(F)cc2N1 [compound 47] |
| > 10 | CC1(C)Cc2cc(Nc3cccc(Cl)n3)ccc2NC1=O [compound 122] |
| 0.148 | O=C1CCc2cc(Nc3ccc4ccccc4n3)ccc2N1 [compound 35] |
| 3.5 | CCc1cnccc1C(=O)Nc1cc2ccc(=O)[nH]c2cc1F [compound 39] |
| 2.04 | CCc1cnccc1C(=O)Nc1ccc2c(c1)CC1(CC1)C(=O)N2 [compound 61] |
| 1.53 | CCCc1cnccc1C(=O)Nc1ccc2c(c1)CCC(=O)N2 [compound 60] |
| 3.5 | CC(C)Cc1cnccc1C(=O)Nc1cc2c(cc1F)NC(=O)CC2 [compound 7] |
| 0.08 | CC1(C)Cc2cc(Nc3ncc4ccccc4n3)ccc2NC1=O [compound 93] |
| 9 | Cc1ccc(C)c(CNc2ccc3c(c2)CCC(=O)N3)c1 [compound 10] |
| > 10 | N#Cc1cccc2ncc(Nc3ccc4c(c3)CCC(=O)N4)cc12 [compound 100] |
| > 10 | Cc1ccc(C(=O)Nc2ccc3c(c2)CCC(=O)N3)cc1C [compound 11] |
| 39.2 | CC1(C)CC(=O)Nc2ccc(Nc3nccc4ccccc34)cc21 [compound 34] |
| 0.196 | Cc1cccc2ccc(Nc3ccc4c(c3)CC(C)(C)C(=O)N4)nc12 [compound 111] |
| 9 | CCCc1cnccc1C(=O)Nc1cc2c(cc1F)NC(=O)CC2 [compound 5] |
| > 10 | Cc1cc(C(=O)Nc2cc3c(cc2F)NC(=O)C(C)(C)C3)c(CC(C)C)cn1 [compound 37] |
| 0.376 | O=C1CCc2cc(NC(=O)c3ccncc3CC3CC3)c(F)cc2N1 [compound 81] |

| IC50 [µM] | SMILES |
| --- | --- |
| > 10 | O=C1CCc2cc(Oc3ncc4ccccc4n3)ccc2N1 [compound 119] |
| > 10 | COCc1cnccc1C(=O)Nc1ccc2c(c1)CCC(=O)N2 [compound 57] |
| > 10 | CC1(C)Cc2cc(Nc3ccc4cnccc4c3)ccc2NC1=O [compound 103] |
| 0.214 | O=C1CCc2cc(Nc3cnc4ccccc4n3)ncc2N1 [compound 126] |
| 4.49 | CC1(C)Cc2cc(Nc3cc(Cl)c(Cl)cn3)ccc2NC1=O [compound 125] |
| > 10 | CC1(C)Cc2cc(Nc3ccc4ccncc4c3)ccc2NC1=O [compound 104] |
| 100 | Cc1cc(C(=O)Nc2ccc3c(c2)CCC(=O)N3)ccn1 [compound 24] |
| > 10 | O=S1(=O)CCc2cc(Nc3ccc4ccccc4n3)ccc2N1 [compound 102] |
| 0.258 | CCc1cnccc1/C=C/c1ccc2c(c1)CCC(=O)N2 [compound 33] |
| > 10 | CCc1cnccc1C(=O)Nc1cc2c(cc1C#N)NC(=O)CC2 [compound 84] |
| > 10 | CC1(C)Cc2cc(NC3COc4ccccc4C3)ccc2NC1=O (stereo not shown) [compound 105] |
| > 10 | CCc1cnccc1C(=O)Nc1cc2c(cc1Cl)NC(=O)CC2 [compound 70] |
| 0.46 | CCc1cnc(F)cc1C(=O)Nc1ccc2c(c1)CCC(=O)N2 [compound 78] |
| 10 | CC1(C)Cc2cc(Nc3ccc4cnccc4n3)ccc2NC1=O [compound 95] |
| > 10 | Cc1cc(C(=O)Nc2ccc3c(c2)CC2(CC2)C(=O)N3)c(Cl)cn1 [compound 68] |
| > 10 | Cc1ccc(C(=O)Nc2ccc3c(c2)CCC(=O)N3)c(C)c1 [compound 12] |

Molecular target: T2, mALDH1a2 (Mus musculus, UniProt Q62148)
T2 construct: pET-Aldh1a2 transformed BL21-DE3 cultures; cell extracts
T2 sequence (Q62148 1-518): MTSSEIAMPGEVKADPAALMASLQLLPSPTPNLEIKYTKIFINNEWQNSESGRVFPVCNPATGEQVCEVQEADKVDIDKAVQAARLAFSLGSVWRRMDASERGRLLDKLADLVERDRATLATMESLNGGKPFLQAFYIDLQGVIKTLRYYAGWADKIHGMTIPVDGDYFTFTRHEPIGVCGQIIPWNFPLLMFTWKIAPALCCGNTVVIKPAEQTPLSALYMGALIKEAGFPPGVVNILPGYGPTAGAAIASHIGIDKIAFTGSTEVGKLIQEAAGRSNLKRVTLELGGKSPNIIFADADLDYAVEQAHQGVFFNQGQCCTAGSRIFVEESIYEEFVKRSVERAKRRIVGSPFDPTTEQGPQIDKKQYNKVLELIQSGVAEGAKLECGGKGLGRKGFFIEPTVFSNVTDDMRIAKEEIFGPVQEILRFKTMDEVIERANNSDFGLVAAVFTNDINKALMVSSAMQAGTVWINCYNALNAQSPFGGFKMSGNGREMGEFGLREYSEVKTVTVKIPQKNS
Test: biochemical
Settings: read-out: mAldhla2 IC50
Description: as §1, §2, §3, §4

| IC50 [µM] | SMILES |
| --- | --- |
| 0.072 | O=C1CCc2cc(Nc3ccc4ccccc4n3)c(F)cc2N1 [compound 47] |
| > 10 | CC1(C)Cc2cc(Nc3cccc(Cl)n3)ccc2NC1=O [compound 122] |
| 0.1 | O=C1CCc2cc(Nc3ccc4ccccc4n3)ccc2N1 [compound 35] |
| 8 | CCc1cnccc1C(=O)Nc1cc2ccc(=O)[nH]c2cc1F [compound 39] |
| 1.81 | CCc1cnccc1C(=O)Nc1ccc2c(c1)CC1(CC1)C(=O)N2 [compound 61] |
| 0.935 | CCCc1cnccc1C(=O)Nc1ccc2c(c1)CCC(=O)N2 [compound 60] |
| 9 | CC(C)Cc1cnccc1C(=O)Nc1cc2c(cc1F)NC(=O)CC2 [compound 7] |
| 0.063 | CC1(C)Cc2cc(Nc3ncc4ccccc4n3)ccc2NC1=O [compound 93] |
| 3.5 | Cc1ccc(C)c(CNc2ccc3c(c2)CCC(=O)N3)c1 [compound 10] |
| > 10 | N#Cc1cccc2ncc(Nc3ccc4c(c3)CCC(=O)N4)cc12 [compound 100] |
| > 10 | Cc1ccc(C(=O)Nc2ccc3c(c2)CCC(=O)N3)cc1C [compound 11] |
| 30.9 | CC1(C)CC(=O)Nc2ccc(Nc3nccc4ccccc34)cc21 [compound 34] |
| 0.145 | Cc1cccc2ccc(Nc3ccc4c(c3)CC(C)(C)C(=O)N4)nc12 [compound 111] |
| 10 | CCCc1cnccc1C(=O)Nc1cc2c(cc1F)NC(=O)CC2 [compound 5] |
| > 10 | Cc1cc(C(=O)Nc2cc3c(cc2F)NC(=O)C(C)(C)C3)c(CC(C)C)cn1 [compound 37] |
| 0.522 | O=C1CCc2cc(NC(=O)c3ccncc3CC3CC3)c(F)cc2N1 [compound 81] |

| IC50 [µM] | SMILES |
| --- | --- |
| 10 | O=C1CCc2cc(Oc3ncc4ccccc4n3)ccc2N1 [compound 119] |
| > 10 | COCc1cnccc1C(=O)Nc1ccc2c(c1)CCC(=O)N2 [compound 57] |
| 5 | CC1(C)Cc2cc(Nc3ccc4cnccc4c3)ccc2NC1=O [compound 103] |
| 0.165 | O=C1CCc2cc(Nc3cnc4ccccc4n3)ncc2N1 [compound 126] |
| 4.05 | CC1(C)Cc2cc(Nc3cc(Cl)c(Cl)cn3)ccc2NC1=O [compound 125] |
| > 10 | CC1(C)Cc2cc(Nc3ccc4ccncc4c3)ccc2NC1=O [compound 104] |
| 100 | Cc1cc(C(=O)Nc2ccc3c(c2)CCC(=O)N3)ccn1 [compound 24] |
| > 10 | O=S1(=O)CCc2cc(Nc3ccc4ccccc4n3)ccc2N1 [compound 102] |
| 0.143 | CCc1cnccc1/C=C/c1ccc2c(c1)CCC(=O)N2 [compound 33] |
| > 10 | CCc1cnccc1C(=O)Nc1cc2c(cc1C#N)NC(=O)CC2 [compound 84] |
| > 10 | CC1(C)Cc2cc(NC3COc4ccccc4C3)ccc2NC1=O (stereo not shown) [compound 105] |
| 2.96 | CCc1cnccc1C(=O)Nc1cc2c(cc1Cl)NC(=O)CC2 [compound 70] |
| 0.366 | CCc1cnc(F)cc1C(=O)Nc1ccc2c(c1)CCC(=O)N2 [compound 78] |
| 1.77 | CC1(C)Cc2cc(Nc3ccc4cnccc4n3)ccc2NC1=O [compound 95] |
| 3.44 | Cc1cc(C(=O)Nc2ccc3c(c2)CC2(CC2)C(=O)N3)c(Cl)cn1 [compound 68] |
| > 10 | Cc1ccc(C(=O)Nc2ccc3c(c2)CCC(=O)N3)c(C)c1 [compound 12] |
